Reference: article PMC9652379, “Safety evaluations of a synthetic antimicrobial peptide administered intravenously in rats and dogs” (Scientific Reports, 2022)

Test system: rats
Experiment: Respiratory function in rats (whole body plethysmography)
Type: in vivo, rat
Details: rats, 15 mg/kg single iv injection, positive control
Description: The possible side-effects of SET-M33 on respiratory function were evaluated after administration of the peptide as a single intravenous bolus at doses of 5, 9 and 15 mg/kg with vehicle (eight animals/group). Respiratory rate, tidal volume and minute volume were assessed. As in the case of neurological toxicity and the 4-week toxicity study, again the dose levels were selected on the basis DRF (above). Baclofen, a muscle relaxer and antispasmodic used to treat muscle pain, spasms and stiffness in people with multiple sclerosis or spinal cord injury or disease, was used as positive control. It was administered as a single intravenous injection at a dose of 15 mg/kg.
Whole body, bias flow plethysmography equipment was used[51]. Respiratory parameters (respiratory rate, tidal volume and minute volume) were derived from the changes in pressure associated with the warming and humidification of the air breathed in by the animal. This was monitored by specific probes located in the plethysmograph chambers. Bias flow (room air) was set at approximately 2.5 L/min. On a day prior to the first day of dosing, all animals were habituated to the plethysmographs for approximately 2 h. The study was run over 4 days and 10 animals (two from each group) were examined each day. On the day of dosing, the animals were placed in the plethysmographs for pre-dose recording (session 1) of respiratory parameters for 60 min. Groups of 8 rats were then removed from the chambers and dosed by intravenous bolus injection with vehicle, SET-M33 or positive control. Immediately after dosing, the rats were placed in the whole body plethysmographs, where they could move about freely, to continuously record respiratory parameters for 4 h post-dose (undisturbed recording). Immediately after the last post-dose recording, the animals were killed humanely by a rising concentration of carbon dioxide. Death was confirmed by dislocation of the neck. Respiratory parameters were reported at the following time points: 0, 30, 60, 90, 120, 150, 180, 210 and 240 min. Time 0 coincided with the mean value of the last 20 min of data recorded in the 60-min pre-dose period. All other time points were the mean of 10-min recordings (an average of every 10 breaths) around each time point. Each post-dose time point was analysed separately by analysis of covariance. Factors in the model were group and day of data collection, with pre-dose values as covariate.

For `NCC(CC(=O)O)c1ccc(Cl)cc1` (centres unmarked) [Baclofen, reference compound], the “respiratory rate vs vehicle” value was “sharp, statistically significant decrease” and the “tidal volume and minute volume vs vehicle” value was “sharp, statistically significant increases”.
